One assay concerns the target T1, muscarinic M1 receptors (Rattus norvegicus, UniProt P08482).
T1 construct: a mixture of a membrane specimen from the cerebral cortex; from tissue; host or cells: rat cerebral cortex membranes (SD rat)
T1 sequence (P08482 1-460): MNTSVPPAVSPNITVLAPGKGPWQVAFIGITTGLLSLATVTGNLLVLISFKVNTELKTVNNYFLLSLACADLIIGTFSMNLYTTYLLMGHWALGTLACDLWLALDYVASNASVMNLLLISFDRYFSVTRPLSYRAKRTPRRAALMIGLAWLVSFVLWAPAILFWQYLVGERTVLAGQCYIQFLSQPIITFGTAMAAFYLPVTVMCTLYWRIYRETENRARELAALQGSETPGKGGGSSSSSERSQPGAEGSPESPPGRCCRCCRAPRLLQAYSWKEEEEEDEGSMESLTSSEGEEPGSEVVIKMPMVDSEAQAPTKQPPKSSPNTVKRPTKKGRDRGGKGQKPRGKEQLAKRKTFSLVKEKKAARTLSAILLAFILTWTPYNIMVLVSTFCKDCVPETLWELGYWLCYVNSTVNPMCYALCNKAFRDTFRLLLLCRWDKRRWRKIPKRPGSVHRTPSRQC
Nature of the assay: Inhibition of binding to muscarinic M1 receptors ([3H]-telenzepine, cerebral cortex membrane). As for the experimental part: (§1) In these tests, their inhibitory and antagonistic effects were expressed in terms of the dissociation constant (Ki) of each test compound which was calculated from its concentration (IC50 ) causing a 50% inhibition of the binding of a labeled ligand to muscarinic receptors. As the labeled ligand, [^3 H]-telenzepine was used for the muscarinic M1 receptors and [^3 H]-N-methylscopolamine for the muscarinic M2 and M3 receptors.
(§2) A male SD strain rat (purchased from Nippon Charles River Co., Ltd.), weighing about 250-350 g, was sacrificed, and the cerebral cortex, heart and lacrimal glands were excised. Using a Polytron (setting 5), each organ was homogenized in 5 volumes of an ice-cold buffer solution (pH 7.4) containing 50 mM tris-HCl, 5 mM magnesium chloride, 1 mM trisodium ethylenediaminetetraacetate and 20% sucrose. The resulting homogenate was centrifuged at 3,000×g at 4° C. for 15 minutes, and the supernatant was filtered through gauze and ultracentrifuged at 100,000×g at 4° C. for 45 minutes. The resulting precipitate was suspended in an ice-cold buffer solution (pH 7.4) containing 50 mM tris-HCl and 5 mM magnesium chloride (hereinafter referred briefly to as "tris buffer") and ultracentrifuged at 100,000×g at 4° C. for 45 minutes. The resulting precipitate was suspended in tris buffer so as to give a concentration of 50 mg/ml and stored at -80° C. till use. The membrane specimens so prepared were thawed prior to use and submitted to tests for the inhibition of binding to muscarinic receptors.
2) Tests for the inhibition of binding to the muscarinic M1 receptors
These tests were performed according to a modification of the method of Hargreaves et al. [Br. J. Pharmacol., Vol. 107, pp. 494-501 (1992)]. Specifically, a mixture of a membrane specimen from the cerebral cortex, 1 nM [^3 H]-telenzepine (85 Ci/mmol; manufactured by New England Nuclear) and a test compound in 0.5 ml of tris buffer was incubated at room temperature (about 20°-25° C.) for 120 minutes. After the addition of 0.5 ml of ice-cold tris buffer, the mixture was filtered by suction through a glass filter (Packard Unifilter Plate GF/C). Then, the filter was washed four times with 1 ml portions of ice-cold tris buffer and dried at 50° C. for an hour. After the addition of a scintillator (Packard Microscinti 0), the radioactivity of [^3 H]-telenzepine adsorbed to the filter was measured with a microplate scintillation counter (Packard Topcount). The nonspecific binding of [^3 H]-telenzepine to receptors was determined by the addition of […] pirenzepine. According to the method of Cheng and Prusoff [Biochem. Pharmacol., Vol. 22, pp. 3099-3108 (1973)], the affinity of the test compound (i.e., a compound in accordance with the present invention) for the muscarinic M1 receptors was determined in terms of its dissociation constant (Ki) calculated from the concentration (IC50) of the test compound which was required to cause a 50% inhibition of the binding of [^3 H]-telenzepine used as the labeled ligand.

The target of another assay is T2, muscarinic M2 receptors (Rattus norvegicus, UniProt P10980).
T2 construct: a membrane specimen from the heart was used as the membrane specimen; from tissue; host or cells: rat heart membranes (SD rat)
T2 sequence (P10980 1-466): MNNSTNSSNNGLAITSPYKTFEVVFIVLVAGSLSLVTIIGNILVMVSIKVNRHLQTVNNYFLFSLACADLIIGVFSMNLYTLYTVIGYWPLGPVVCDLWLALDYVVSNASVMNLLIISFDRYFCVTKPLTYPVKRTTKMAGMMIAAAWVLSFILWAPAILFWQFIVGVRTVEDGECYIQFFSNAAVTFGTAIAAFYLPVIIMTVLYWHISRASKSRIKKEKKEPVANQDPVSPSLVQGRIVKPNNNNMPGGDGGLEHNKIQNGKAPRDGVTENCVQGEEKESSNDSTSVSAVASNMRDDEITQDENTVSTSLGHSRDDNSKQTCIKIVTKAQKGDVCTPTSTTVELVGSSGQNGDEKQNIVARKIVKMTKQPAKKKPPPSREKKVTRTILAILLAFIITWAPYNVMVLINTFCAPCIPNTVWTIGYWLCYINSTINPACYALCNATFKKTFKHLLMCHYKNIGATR
Nature of the assay: Inhibition of binding to muscarinic M2 receptors ([3H]-N-methylscopolamine, heart membrane). The conditions noted are these: 0.2 nM [3H]-N-methylscopolamine. As for the experimental part: as §1, with “The compounds of formula [I] in accordance with the present invention have a potent and selective inhibitory effect on binding to muscarinic receptors, as well as a potent and selective antagonistic effect on muscarinic receptors both in vitro and in vivo. […] In” for “In”
as §2
3) Tests for the inhibition of binding to the muscarinic M2 receptors
(§3) The nonspecific binding of [^3 H]-N-methylscopolamine to receptors was determined by the addition of 1 mM N-methylscopolamine.

In the next assay the target is muscarinic M3 receptor (Rattus norvegicus, UniProt P08483). Nature of the assay: Inhibition of binding to muscarinic M3 receptors ([3H]-N-methylscopolamine, lacrimal gland membrane). Further details: a membrane specimen from the lacrimal glands was used as the membrane specimen; from tissue; host or cells: rat lacrimal gland membranes (SD rat). The conditions noted are these: for M1/M3 / M2/M3: ratio of binding Ki; for M1/M3: M1 over M3; for M2/M3: M2 over M3. As for the experimental part: as §1, §2
4) Tests for the inhibition of binding to the muscarinic M2 receptors
as §3

pKi: −log10 of the molar value.

Sequence of muscarinic M3 receptor (P08483 whole entry): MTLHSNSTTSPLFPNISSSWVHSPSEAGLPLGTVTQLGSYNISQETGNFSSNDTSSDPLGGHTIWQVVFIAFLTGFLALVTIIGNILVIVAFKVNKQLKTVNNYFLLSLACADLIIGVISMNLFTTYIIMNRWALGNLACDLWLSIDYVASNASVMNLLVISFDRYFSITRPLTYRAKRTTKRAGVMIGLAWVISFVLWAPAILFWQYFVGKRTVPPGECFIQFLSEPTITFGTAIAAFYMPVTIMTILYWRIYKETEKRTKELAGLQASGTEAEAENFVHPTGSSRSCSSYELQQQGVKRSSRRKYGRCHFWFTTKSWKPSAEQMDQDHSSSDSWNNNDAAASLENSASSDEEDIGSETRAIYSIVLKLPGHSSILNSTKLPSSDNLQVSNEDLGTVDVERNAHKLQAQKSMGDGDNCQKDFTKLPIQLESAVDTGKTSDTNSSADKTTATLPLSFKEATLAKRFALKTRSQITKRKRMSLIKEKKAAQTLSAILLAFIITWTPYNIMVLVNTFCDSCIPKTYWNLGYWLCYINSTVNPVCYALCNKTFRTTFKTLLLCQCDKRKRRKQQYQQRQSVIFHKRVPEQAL

The term pKi denotes −log10 of the Ki, conventionally taken in molar units. High values mean a low Ki, low ones a high Ki. `CC[C@H](C)CCCN1CCC(NC(=O)[C@](O)(c2ccccc2)C2CCC2)CC1.Cl` [Example 22, (2R)-N-{1-[(4S)-4-Methylhexyl]piperidin-4-yl}-2-cyclobutyl-2-hydroxy-2-phenylacetamide hydrochloride]: the values for the negative-log Ki (pKi) at muscarinic M1 receptors, at muscarinic M2 receptors and at muscarinic M3 receptor were 6.92, 5.85 and 8.04, respectively. For the same compound, the M1/M3 at muscarinic M3 receptor was determined as 13.0. The M2/M3 on muscarinic M3 receptor was 152.

Consider `CC(C)=CCCN1CCC(NC(=O)C(O)(c2ccccc2)C2CCCC2)CC1` (stereo not shown) [Example 16, N-[1-(4-Methyl-3-pentenyl)piperidin-4-yl]-2-cyclopentyl-2-hydroxy-2-phenylacetamide], for which, on muscarinic M1 receptors, the pKi is 7.89. On muscarinic M2 receptors, this compound gave a pKi of 6.52. At muscarinic M3 receptor, the pKi was 8.51, the M1/M3 was determined as 4.2 and the M2/M3 came out at 97.

On muscarinic M1 receptors, `CC(C)=CCCN1CCC(NC(=O)[C@](O)(c2ccccc2)C2CCCC2)CC1.O=C(O)/C=C/C(=O)O` [Example 28, (2R)-N-[1-(4-Methyl-3-pentenyl)piperidin-4-yl]-2-cyclopentyl-2-hydroxy-2-phenylacetamide fumarate] gave a pKi of 8.22. At muscarinic M2 receptors, this compound gave a pKi of 6.72. Moreover, on muscarinic M3 receptor, the pKi is 8.70, the M1/M3 is listed as 3.0 and the M2/M3 was determined as 96.

For the compound `CC[C@H](C)CCCN1CCC(NC(=O)[C@](O)(c2ccccc2)C2CCCC2)CC1.Cl` [Example 29, (2R)-N-{1-[(4S)-4-Methylhexyl]piperidin-4-yl}-2-cyclopentyl-2-hydroxy-2-phenylacetamide hydrochloride], the pKi at muscarinic M1 receptors was 7.40; on muscarinic M2 receptors, 5.96; at muscarinic M3 receptor it was 8.39. The M1/M3 at muscarinic M3 receptor was 10. The M2/M3 at muscarinic M3 receptor is given as 270.

`O=C(NC1CCN(CC2CCCCC2)CC1)C(O)(c1ccccc1)C1CCCC1` (stereo not shown) [Example 32, N-[1-(Cyclohexylmethyl)piperidin-4-yl]-2-cyclopentyl-2-hydroxy-2-phenylacetamide]: the negative logarithm of the Ki (pKi) on muscarinic M2 receptors was 5.64; at muscarinic M3 receptor, 7.96.
